Measurements from US20260240819A1, “KAT6 INHIBITOR METHODS AND COMBINATIONS FOR CANCER TREATMENT” (Pfizer Inc., priority 2020, published 2026).
Values joined by “and” are separate entries in the source; they are usually repeats but may differ in a detail not shown here. Identical values can stand only once.

Legend:
[1] = system: T47D cells; test: Proliferation colony formation assay (SRB stain); assay type: cell-based; details: Homo sapiens, 288 h, single agent, 12 days, read-out: Concentration giving 50% proliferation inhibition
Description: (§1) T47D, ZR-75-1, or MCF7 cells were seeded into 6-well tissue culture plates at 10% seeding confluence (100,000-150,000 cells per well). After allowing 18-24 hours for the cells to attach to the wells, growth media was aspirated and discarded and new growth media containing 0-20 μM of either COMPOUND A or COMPOUND B was added in 2-fold increments of descending concentration from 20 μM to the cells (proliferation assay). In parallel, seeded cultures with the same titration of the KAT6 inhibitors was added to the cells. 500 nM palbociclib was also added for each concentration of the KAT6 inhibitors (palbociclib recovery assay). The cultures were incubated 12-14 days and treated with these inhibitors/inhibitor combinations. Growth media containing the inhibitors was replaced on the cell cultures every 3-4 days (twice per week).
For the KAT6 inhibitor treated T47D cultures (proliferation assay), after 12 days the vehicle (DMSO) treated cultures were >90% confluent and the cell cultures were SRB stained as described in Example 3. The stained 6-well plates were scanned using an Epson Perfection V600 Photo Scanner and Epson Scan version 3.9.2.0 software. To quantitate SRB staining in each 6-well culture, the cultures were destained with 2 mL 10 mM Tris pH 7.5 per well and the absorbance at 565 nm (O.D. 565) of the released stain was measured using a SpectraMax Plus plate reader and SoftMaxPro 5.4.3 software. Inhibition of T47D cell proliferation by both COMPOUND A and COMPOUND B were equivalent with 50% proliferation inhibition observed with 10 μM of the KAT6 inhibitors (FIGS. 8A and 8C).
Cells were plated at low density into 6-well culture dishes and allowed to attach overnight at 37° C., 5% CO2. The next day, in parallel to the proliferation set, palbociclib was added at a final concentration of […] to another set of plates, which served as the set for palbociclib recovery. To both proliferation and palbociclib recovery plates, DMSO or KAT6 inhibitor was added into each well at increasing doses. Medium and KAT6 inhibitor were refreshed twice a week. Cells were cultured for about two weeks of drug treatment until the DMSO-treated wells reached confluency. At the end of treatment, cells were washed once with phosphate-buffered saline and were fixed and stained with SRB for visualization followed by quantification. […] Wells were fixed and stained with SRB for visualization followed by quantification. To quantify the stain, stained cells were dissolved in 2 mL of 10 mM Tris-HCl, pH 7.5 and shaken for 10 min on a shaker. Samples were then diluted with 10 mM Tris-HCl, pH 7.5, transferred to a 96-well microtiter plate in a volume of 100 μL and read on SpetraMax at 565 nm.

[2] = system: T47D cells; test: Palbociclib recovery colony formation assay (SRB stain); assay type: cell-based; details: Homo sapiens, read-out: KAT6 inhibitor concentration giving 50% inhibition of recovery, with 500 nM palbociclib 14 days, then 14 days recovery
Description: as §1
For the T47D cultures arrested with 500 nM palbociclib and treated with increasing concentration of the KAT6 inhibitors (palbociclib recovery assay), after 14 days of combination treatment the growth media containing the inhibitors was aspirated from the cultures and discarded. […] After allowing 14 days for the cultures to recover, those that recovered from single agent 500 nM palbociclib arrest were >90% confluent and all the palbociclib recovery cultures were SRB stained, scanned, and destained/measured as described above. […]

[3] = Bodyweight and health monitoring, PDX ST340 study; assay type: in vivo, female athymic nude mice; details: relative to day 0
Description: (§2) Combination studies with palbociclib, fulvestrant and the KAT6 inhibitor, Compound E (KAT6i), were performed in two ER+ breast cancer PDX models: ST340 and ST941. ST340 was wildtype for ESR1. […] Both studies were conducted by XenoSTART (San Antonio, Texas), where 6-12 week-old female athymic nude mice (JAX, stock #007850) were subcutaneously implanted with ~70 mg tumor fragments. Animals were supplemented with exogenous estradiol ad libitum via drinking water throughout the duration of the studies. Tumor measurements and animal weights were captured twice per week, and animals were stratified and enrolled into the study when the mean tumor volume (TV, formula: width^2×length×0.5) reached 150-300 mm^3.
(§3) Each study contained eight treatment groups of n=10 animals per group. The groups were as follows: 1) Vehicle (5% DMSO/40% PEG300/55% 1×PBS), 2) Compound E, 3) palbociclib, 4) fulvestrant, 5) palbociclib+fulvestrant, 6) Compound E +fulvestrant, 7) Compound E+palbociclib, and 8) Compound E+palbociclib+fulvestrant. Animals remained on study and were continued on treatments until the mean tumor volume of each group reached ~1500 mm^3. At that point, the final dose was administered, animals were sacrificed, and terminal samples were collected. Blood microsamples were collected from each group for pharmacokinetics (PK) analysis at 0, 3, and 7 hrs (n=3/timepoint) on day 14 of dosing and again on the terminal day of dosing.
(§4) Analysis of covariance (ANCOVA) was used to determine statistical significance when comparing percent TGI between groups. Changes in bodyweights were calculated in relation to starting bodyweights at study initiation (day 0 of treatment).

[4] = system: ER+ breast cancer PDX model ST340; test: PDX tumor growth inhibition study; assay type: in vivo, female athymic nude mice; details: doses per Table 7; for % TGI Delta: PDX ST340, day 21, compared to Vehicle; for Mean ± SEM (day 21): PDX ST340, tumor volume (mm^3)
Description: as §2, §3, §4

[5] = Bodyweight and health monitoring, PDX ST941 study; assay type: in vivo, female athymic nude mice; details: relative to day 0
Description: as §2, §3, §4

| Structure (SMILES) | IC50 [1] [µM] | IC50 [2] [µM] | Day 21 mean change in bodyweight [3] | Maximum mean bodyweight loss [3] [%] | % TGI Delta [4] | Mean ± SEM (day 21) [4] | Day 17 mean change in bodyweight [5] | Maximum mean bodyweight loss [5] [%] | % TGI Delta ([4]; listed as fulvestrant) |
| --- | --- | --- | --- | --- | --- | --- | --- | --- | --- |
| O=C(NNS(=O)(=O)c1ccccc1)c1cc(-c2ccccc2)cc(Cl)c1F [COMPOUND B, N′-(5-chloro-4-fluoro-[1,1′-biphenyl]-3-carbonyl)benzenesulfonohydrazide] | 10 | 2.5 |  |  |  |  |  |  |  |
| COc1ccccc1S(=O)(=O)Nc1noc2cc(Cn3cccn3)cc(OC)c12 [Compound E, 2-methoxy-N-{4-methoxy-6-[(1H-pyrazol-1-yl)methyl]-1,2-benzoxazol-3-yl}benzene-1-sulfonamide] |  |  | −2% | −4 | 55% and 55.4% | 882 ± 86 | +5% | −4 |  |
| C[C@]12CC[C@@H]3c4ccc(O)cc4C[C@@H](CCCCCCCCC[S+]([O-])CCCC(F)(F)C(F)(F)F)[C@H]3[C@@H]1CC[C@@H]2O (stereo partly drawn) [Fulvestrant] |  |  | +5% | −2 | 21.3% | 1370 ± 195 | 0% | −5 | ~ 20% |
